The text below walks through data of article PMC6895199, “A new antiviral scaffold for human norovirus identified with computer-aided approaches on the viral polymerase” (Scientific Reports, 2019).

Each structure is given as a SMILES string.

The subject of data set [1] is MNV. Nature of the data set: MNV CPE reduction assay (MTS) in RAW 264.7 cells. The class given is cell-based, mouse norovirus (MNV-1.CW1). To be noted: Norovirus, RAW264.7, in Mus musculus. As for the experimental part:
The newly prepared compounds 2–7 and 34–35 were evaluated for their antiviral effect against the genogroup V mouse norovirus (MNV) using the mouse macrophage cell line RAW264.7. This assay evaluates the ability of the compounds to protect infected cells from the virus-induced cytopathic effect, thus being suitable to identify inhibition of virus replication at every step of the virus life cycle, and representing a robust cellular assay available for the rapid evaluation of potential norovirus inhibitors. Compounds identified using MNV have shown effects against HuNoV in vitro and in vivo, as in the case of nucleoside RdRp inhibitor 2′-C-methylcytidine (2CMC)[34]–[36]. Unfortunately, despite not presenting the aqueous solubility issues we had previously encountered for 1[29], no significant antiviral effect could be observed in this assay for the new compounds up to the maximum concentration tested. The new structural modifications, despite retaining inhibition of the RdRp in an isolated enzyme activity assay and showing no cytotoxic effects at the test concentrations in the MNV antiviral assay (Supplementary Table S1), are correlated with a lack of antiviral activity. As these new structures present the same limitation of most non-nucleoside HuNoV polymerase inhibitors reported so far[22], we were prompted to apply a different computer-aided strategy to further modify the scaffold of 1, with the aim to achieve an antiviral effect in cellular systems. […]
Since the main scope of this work was to find new norovirus inhibitors which show antiviral effects against both the HuNoV RdRp and in norovirus-infected cells, priority was given to the evaluation of most of the new molecules for their antiviral activity against MNV in infected RAW cells. The nucleoside 2′-C-methylcytidine was used as positive control. The test compounds were evaluated at eight different concentrations (range 0.6–100 µM) and their ability to reduce the virus-induced cytopathic effect was assessed.
Cells and virus: MNV (virus strain MNV-1.CW1) was propagated in RAW 264.7 cells grown in DMEM (Life Technologies, Gent, Belgium) supplemented with 10% or 2% FBS, 2 mM L-glutamine, 20 mM HEPES, 0.075 g/L sodium bicarbonate, 1 mM sodium pyruvate, 100 U penicillin/mL and 100 µg/mL streptomycin at 37 °C in a humidified atmosphere of 5% CO2. The human norovirus GI.1 replicon harboring gastric tumor-1 cell line (HGT-NV) (kindly provided by Dr. Ian Goodfellow, University of Cambridge) was maintained in DMEM supplemented with 10% FBS, 2mM L-glutamine, 0.075 g/L sodium bicarbonate and 1.0 mg/ml of Geneticin (G418; Life Technologies), at 37 °C in a humidified atmosphere of 5% CO2[34].
Antiviral assay with MNV: The antiviral activity of the Compounds was determined using an MTS [3-(4,5-dimethylthiazol-2-yl)-5-(3-carboxymethoxyphenyl)-2-(4-sulfophenyl)-2H-tetrazolium]-based cytopathic effect (CPE) reduction assay. […] Then, a MTS-phenazinemethosulfate (MTS/PMS) stock solution [(2 mg/mL MTS (Promega, Leiden, The Netherlands) and 46 µg/mL PMS (Sigma–Aldrich, Bornem, Belgium) in PBS at pH 6–6.5)] was diluted 1/20 in MEM (Life Technologies, Gent, Belgium) and 75 µL were added to each well. After 2 h, the optical density (OD) was read at 498 nm. The %CPE reduction was calculated as [(ODtreated)MNV − ODVC]/[ODCC − ODVC] × 100, where ODCC represents the OD of the uninfected untreated cells, whereas ODVC and (ODtreated)MNV represent the OD of infected untreated cells and virus-infected cells treated with a compound concentration, respectively. The 50% effective concentration (EC50) was defined as the compound concentration that protected 50% of the cells from virus-induced CPE[34].

For data set [2], the target named is HuNoV (GII.4) RdRp (Norovirus Hu/GII.4/Sydney/NSW0514/2012/AU, UniProt K4L8Z7). Nature of the data set: Quantitative fluorescent RdRp activity assay (PicoGreen, poly(C) template). The settings on record: for IC50: HuNoV (GII.4) RdRp activity, six concentrations 0.1–100 µM, mean ± SD. The class given is biochemical, human norovirus Sydney 2012. As to the method: The newly synthesised compounds, including the carboxylate ester derivatives 34–35 and 7 from the Core Hopping approach, were evaluated for their enzymatic inhibition of human norovirus Sydney 2012 (HuNoV (GII.4)) RdRp activity in vitro, using a quantitative fluorescent assay. Compounds were tested at six different concentrations (concentration range examined: 0.1–100 µM) and compared to the relative activity of mock treated samples containing the vehicle only (0.5% DMSO [vol/vol]). PPNDS [Pyridoxal-5′-phosphate-6-(2′-naphthylazo-6′-nitro-4′,8′-disulfonate) tetrasodium salt], a previously reported potent inhibitor of NoV RdRp activity, and 1 were used as positive controls. Dose-dependent inhibitory response curves were used to establish IC50 values for the eight test compounds, as reported in Table 1 (see also Supplementary Fig. S1).
The newly prepared compounds 48–60 were initially evaluated against norovirus Sydney 2012 RdRp activity in vitro using a quantitative fluorescent assay. Compounds were tested at a fixed concentration of 20 µM and compared to the relative activity of mock treated samples. PPNDS and 1 were used as positive controls. […] These two rings are structural features present in 1 and in one of its derivatives we have previously reported. […] From these observations, the thiophene ring appears not to influence inhibitory activity. Derivatives in which the central core of 48 has been used to link the two terminal hydrophobic rings of 1 or of its derivatives we have previously reported[25] (55, 57, 58) appear to retain the RdRp inhibitory activity found for 48 (~20% at 20 µM). A similar effect is obtained when a sulfonyl group, as in our hit 1, is used to link ring 2, regardless if it is a thiazole (59) or an unsubstituted phenyl ring (60), to the rest of the molecule. […] Overall, even if showing a reduced biochemical activity in comparison with 1, some of the new derivatives can be considered as modest HuNoV RdRp inhibitors at 20 µM.
(§1) Fluorescent RdRp activity assays were carried out as previously described[12],[29]. Briefly, RdRp activity was quantified by monitoring the formation of double-stranded RNA (dsRNA) from a single stranded homopolymeric template, poly(C) (Sigma Aldrich), using the fluorescent dye PicoGreen (Life Technologies, Carlsbad, CA, USA). RdRp assays were performed in 384-well plates, and each reaction mixture contained 400 ng enzyme, 45 μM GTP, 10 ng/μL poly(C) RNA, 2.5 mM MnCl2, 5 mM dithiothreitol, (DTT), 0.01% bovine serum albumin (BSA), and 0.005% Tween 20 in 20 mM Tris-HCl, pH 7.5, with a final reaction volume of 25 μL. The PPNDS and compound 1 were used as a positive controls. RdRps were incubated for 10 mins at 30 °C in the presence of the test compounds or the compound vehicle DMSO (0.5% vol/vol) before addition into the reaction mixture, which was then allowed to run 15 min at 30 °C then terminated with 10 mM EDTA, followed by PicoGreen staining and dsRNA quantitation. GraphPad Prism V6.05 (La Jolla, CA, USA) was used to plot the IC50 values. A secondary gel-based polymerase activity assay was used as a counter-screen as described below, to exclude the possibility of RdRp activity enhancement. Primed elongation activity was examined in a gel-based assay as previously described[12],[29] using the RNA template (PE44-NoV). Gels were imaged using BioRad (Hercules, CA, U.SA) Geldoc Universal Hood II, running BioRad Image Lab software, V4.1, build 16.

Data set [3] concerns HuNoV (GII.4) RdRp. Kind of data set: Counter-screen gel-shift assay of primed elongation activity (PE44-NoV template). The settings on record: fixed concentration of 100 μM. It is filed as biochemical, human norovirus. As to the method:
To further confirm RdRp inhibition and exclude any potential false positives from the first fluorescence RdRp assay, the eight molecules were then assessed using a gel-shift enzyme activity assay at a fixed concentration of 100 μM, following a procedure previously adopted by our research group.
Figure 5 A counter-screen gel-shift assay was used to confirm HuNoV (GII.4) RdRp inhibitory activity of compounds 2, 3, 34 and 35 (A), 4, 5, 6 (B) and 7 (C). The eight compounds were examined for inhibition of primed elongation activity. PE44-NoV RNA templates (32 nucleotides) were extended (44 nucleotides) by the RdRp in the absence of any test compounds (0.5% DMSO [vol/vol] negative control) or with test compounds at a fixed concentration of 100 μM. […] Full-length gels are presented in Supplementary Fig. S3.
as §1

A short description of data set [4]: Cytotoxicity by the MTS method on uninfected cells. The class given is cell-based. To be noted: mouse, uninfected RAW 264.7 cells. As for the experimental part: Cytotoxicity: The cytotoxicity of the Compounds was evaluated by the MTS method, by exposing uninfected cells to the same concentrations of compounds for 3 days. The %cell viability was calculated as (ODtreated/ODCC) × 100, where ODCC is the OD of uninfected untreated cells and ODtreated are uninfected cells treated with compound. The CC50 was defined as the compound concentration that reduces the number of viable cells by 50%[34].
(In general: Tetrazolium dyes change colour on reduction, which living cells bring about.)

Data set [5] in a line: Crystal formation seen in the cell-based assays. It is filed as physicochemical. The settings on record: MNV CPE reduction assay, Supplementary Table S1.
Where [6] appears, read: Supplementary Table S1, at least two independent experiments.

What is called EC50 is the midpoint of the concentration-response curve. A lower EC50 goes with greater potency. For orientation: CC50 means the concentration at which the toxic effect on the cells reaches its halfway point. In turn, `O=C(Cc1cccc(-c2ccccc2)c1)Nc1ccc(S(=O)(=O)Nc2ccccc2)cc1` [Compound 7, 2-([1,1′-biphenyl]-3-yl)-N-(4-(N-phenylsulfamoyl)phenyl)acetamide] displayed an EC50 in data set [1] (setting [6]) greater than 12.5 µM. Further, the inhibition at 100 µM in data set [2] (100 µM, read-out: inhibition of RdRp activity at the maximum concentration tested) came out at 20%. For the same compound, the “inhibition of primed elongation activity (gel-shift)” value (“inhibition … (gel-shift)” below) in data set [3] is recorded as “did not demonstrate inhibition”. Further, the CC50 at 3 days in data set [4] (setting [6]) came out at 20 ± 21 µM.

Usually IC50 stands for the concentration needed to halve the response being measured. Consider `CCOC(=O)c1ccc(N2NC(=O)/C(=C\c3ccc(-c4ccc(S(=O)(=O)Nc5ccccc5)cc4)o3)C2=O)cc1` [Compound 34, Ethyl(E)-4-(3,5-dioxo-4-((5-(4-(N-phenylsulfamoyl)phenyl)furan-2-yl)methylene)pyrazolidin-1-yl)benzoate], for which the EC50 in data set [1] (setting [6]) is greater than 100 µM. Further, in data set [2], the IC50 came out at 13.5 ± 5.8 µM. In data set [4] (setting [6]), this compound showed a CC50 at 3 days greater than 100 µM. Also, in data set [5], the “crystals noted in the assay” value is “crystals”.

In the case of `Cc1nc(N=Nc2cc(S(=O)(=O)[O-])c3cc([N+](=O)[O-])cc(S(=O)(=O)[O-])c3c2)c(COP(=O)([O-])[O-])c(C=O)c1O.[Na+].[Na+].[Na+].[Na+]` [PPNDS, Pyridoxal-5′-phosphate-6-(2′-naphthylazo-6′-nitro-4′,8′-disulfonate) tetrasodium salt, reference compound], the IC50 in data set [2] is 1.5 ± 0.25 µM. Moreover, in data set [3], the “inhibition … (gel-shift)” value is “complete inhibition”.

`O=C(NC(=S)Nc1ccc(N2CCN(C(=O)c3ccco3)CC2)cc1)c1sc2ccccc2c1Cl` [Compound 53, 3-Chloro-N-((4-(4-(furan-2-carbonyl)piperazin-1-yl)phenyl)carbamothioyl)benzo[b]thiophene-2-carboxamide] came in with a concentration for a half-maximal effect (EC50) in data set [1] (Table 2, RAW 264.7, range 0.6–100 µM, at least three independent experiments) greater than 100 µM. In data set [2] (20 µM, read-out: inhibition of HuNoV RdRp activity at fixed concentration), the inhibition at 20 µM is no more than 60%. Also, the “inhibition … (gel-shift)” value in data set [3] is “significant inhibition”. Besides, in data set [4] (Table 2, at least three independent experiments), the 50% cytotoxic concentration (CC50) at 3 days was 9.4 ± 2.3 µM.
